For the assay, the system named is human conjunctival fibroblasts. Put plainly: Polymer cytotoxicity in vitro, toluidine blue staining after 7 days of culture. The assay is classed as cell-based. Particulars: MMC incorporated in salt-free P-HEMA hydrogel (Procedure 2), exponential fit, r2 0.95.

This is an account of results in US8337447B2, “Device for delivery of antifibrotic agents and method” (priority 2006, dated 2012).

Experimental: Measurement of polymer cytotoxicity in vitro: A single 8 mm disk of sterile polymer was affixed to the center of each 60 mm tissue culture dish with clear RTV silicone cement. The silicone cement was sterile as it came from the tube and care was taken during this procedure to maintain the sterility of both the polymer and the tissue culture dish. The cement was allowed to cure for 1-2 hours in a sterile environment, until no odor of acetic acid could be detected. […] The culture medium was removed and the cell layer was gently washed 3 times with 5 ml of phosphate-buffered saline. […] In some cases, the solutions had to be diluted with 2% aqueous sodium dodecyl sulfate to bring the absorbance within the linear range of the spectrophotometer. […]
Once these parameters had been determined, the study was repeated with early passage cultures human conjunctival fibroblasts, the cell type against which these slow release polymers will ultimately be targeted. […]
A single 8 mm disk of polymer was affixed to each culture dish with silicone cement and cells were fixed and stained 7 days after inoculation, as described in Methods. After solubilization of the cell-bound dye, the color (measured as absorbance at 650 nm) was a measure of the number of cells in each dish. […]

`CO[C@@]12[C@H](COC(N)=O)C3=C(C(=O)C(C)=C(N)C3=O)N1C[C@@H]1N[C@@H]12` [MMC, mitomycin C]: the “concentration of MMC that inhibited 50% of cell proliferation (IC50)” value is 0.15 mg/g dried gel.
